Reference: patent US20260083851A1 (AVILAR THERAPEUTICS, INC., priority 2022, published 2026)
pEC50, pKd: −log10 of the molar value. Where two headings read alike, the source gives them in different places. Positions of bridges follow the written chain, without caps; N, C: chain ends. Non-standard residues stand in square brackets, D forms with d. Residues, ends and D or L forms follow the SMILES beside them. ξ: configuration not given here. Pro(4S-NH2) = N[C@@H]1CN[C@H](C(=O)O)C1; ξPro(4-NH2) = NC1CNC(C(=O)O)C1

Assays:
ASGPR = biological target: T1, ASGPR (Homo sapiens, UniProt P07306); assay: ASGPR SPR binding; details: second table, read-out: ASGPR KD
T1 construct: biotin (biotinylated)
T1 sequence (P07306 1-291): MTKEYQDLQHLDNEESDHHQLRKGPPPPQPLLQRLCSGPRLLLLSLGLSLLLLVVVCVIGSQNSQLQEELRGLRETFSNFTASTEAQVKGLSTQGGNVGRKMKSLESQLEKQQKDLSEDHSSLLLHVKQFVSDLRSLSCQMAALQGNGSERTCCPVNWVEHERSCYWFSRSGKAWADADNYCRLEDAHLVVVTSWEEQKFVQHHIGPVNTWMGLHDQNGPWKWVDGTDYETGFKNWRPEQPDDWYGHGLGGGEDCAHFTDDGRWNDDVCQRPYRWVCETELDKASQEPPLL

IgG = IgG SPR binding; details: second table, read-out: IgG KD
[1] = biological target: T2, ASGPR receptor on HepG2 cells (ternary complex with AF488-labeled antibody) (Homo sapiens, UniProt P07306); assay: Ternary complex formation assay (flow cytometry, cell-associated AF488 fluorescence); type: cell-based
T2 construct: host or cells: HepG2
T2 sequence (P07306 1-291): T1 sequence (P07306 1-291)
T2 sequence (P07307 1-311 partner): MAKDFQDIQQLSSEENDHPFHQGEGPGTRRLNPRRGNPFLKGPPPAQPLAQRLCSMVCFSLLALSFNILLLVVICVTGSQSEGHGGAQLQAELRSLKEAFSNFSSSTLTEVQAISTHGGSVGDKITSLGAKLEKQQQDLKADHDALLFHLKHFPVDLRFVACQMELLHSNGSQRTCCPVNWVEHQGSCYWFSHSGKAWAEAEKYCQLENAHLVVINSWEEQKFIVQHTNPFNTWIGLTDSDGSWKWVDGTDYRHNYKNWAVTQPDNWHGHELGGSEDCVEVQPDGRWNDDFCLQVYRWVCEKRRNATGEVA
Procedure: Human IgG (Sigma-Aldrich, 14506) was covalently labeled with Alexa Fluor 488 using the Alexa Fluor™ 488 Protein Labeling Kit (Thermo Fisher, A10235) following the manufacturer's instructions. HepG2 cells (ATCC, HB-8065) were cultured to about 70% confluence and harvested by trypsinization. Single cell suspensions of HepG2 cells were plated in 96 well plates at 1×10^5 cells/well in cell culture media (DMEM supplemented with 10% FBS) and placed at 4° C. For studies using human IgG, cells were incubated with 100 nM AF488-labeled anti-human IgG and serial dilutions of IgG-based degrader for 1 hour at 4° C. For studies using DNP, cells were incubated with 100 nM AF488-labeled polyclonal rabbit anti-dinitrophenyl (DNP) antibodies (ThermoFisher) and serial dilutions of DNP-based degrader for 1 hour at 4° C. After washing once with ice-cold PBS containing 0.1% BSA and 0.1% sodium azide, cells were resuspended in 150 uL PBS+0.1% BSA and cell-associated AF488 fluorescence was measured by flow cytometry using the iQue® Screener PLUS Flow Cytometer (IntelliCyt). […]

Compound: CNC(=O)CCC1NC(=O)CNC(=O)C(CC(C)C)NC(=O)C(Cc2cnc[nH]2)NC(=O)C(Cc2c[nH]c3ccccc23)NC(=O)C(C)NC(=O)C2CSSCC(NC(=O)C(Cc3c[nH]c4ccccc34)NC(=O)C(C(C)C)NC(=O)C(CC(C)C)NC1=O)C(=O)NC(C(C)O)C(=O)N1CCCC1C(=O)N1CC(N)CC1C(=O)NC(CC(=O)O)C(=O)N2 (stereo not drawn) [compound 64]
- pKd (ASGPR): > 7.00

Compound: CC(C)CC1NC(=O)C(Cc2cnc[nH]2)NC(=O)C(Cc2c[nH]c3ccccc23)NC(=O)C(C)NC(=O)C2CSSCC(NC(=O)C(Cc3c[nH]c4ccccc34)NC(=O)C(C(C)C)NC(=O)C(CC(C)C)NC(=O)C(CCC(=O)O)NC(=O)CNC1=O)C(=O)NC(C(C)O)C(=O)N1CCCC1C(=O)N1CC(NC(=O)c3ccc(N4CCC(CN5CCN(CC6OCC(Nc7cncc(C(F)(F)F)n7)C(O)C6O)CC5)CC4)cc3)CC1C(=O)NC(CC(=O)O)C(=O)N2 (stereo not drawn) [compound 98]
- pKd (IgG): > 7.00
- pEC50 ([1]; read-out: TCF EC50, 100 nM AF488-labeled antibody, 1 hour at 4° C., the 25th table, class symbols): > 7.00

Compound: CC(C)C[C@@H]1NC(=O)[C@H](C)NC(=O)CNC(=O)[C@H](CC(C)C)NC(=O)[C@H](Cc2cnc[nH]2)NC(=O)[C@H](Cc2c[nH]c3ccccc23)NC(=O)[C@H](C)NC(=O)[C@@H]2CSSC[C@H](NC(=O)[C@H](Cc3c[nH]c4ccccc34)NC(=O)[C@H](C(C)C)NC1=O)C(=O)N[C@@H]([C@@H](C)O)C(=O)N1CCC[C@@H]1C(=O)N1C[C@@H](N)C[C@H]1C(=O)N[C@@H](C)C(=O)N2 [compound 67] (cyclo(ACAWHLGALVWCT[dP][Pro(4S-NH2)]); disulfide 2-12)
- pKd (IgG): > 7.00

Compound: C#CCCCC(=O)NC1CC2C(=O)NC(CC(=O)O)C(=O)NC3CSSCC(NC(=O)C(Cc4c[nH]c5ccccc45)NC(=O)C(C(C)C)NC(=O)C(CC(C)C)NC(=O)C(CCC(=O)O)NC(=O)CNC(=O)C(CC(C)C)NC(=O)C(Cc4cnc[nH]4)NC(=O)C(Cc4c[nH]c5ccccc45)NC(=O)C(C)NC3=O)C(=O)NC(C(C)O)C(=O)N3CCCC3C(=O)N2C1 (stereo not drawn) [compound 75]
- pKd (IgG): > 7.00

Compound: CC(C)CC1NC(=O)C(C)NC(=O)CNC(=O)C(CC(C)C)NC(=O)C(Cc2cnc[nH]2)NC(=O)C(Cc2c[nH]c3ccccc23)NC(=O)C(C)NC(=O)C2CSSCC(NC(=O)C(Cc3c[nH]c4ccccc34)NC(=O)C(C(C)C)NC1=O)C(=O)NC(C(C)O)C(=O)N1CCCC1C(=O)N1CC(N)CC1C(=O)NC(CC(=O)O)C(=O)N2 (stereo not drawn) [compound 59] (cyclo(GALVWCTP[ξPro(4-NH2)]DCAWHL); disulfide 6-11; configuration not given here)
- pKd (IgG): > 7.00

Compound: CC(C)CC1NC(=O)C(Cc2cnc[nH]2)NC(=O)C(Cc2c[nH]c3ccccc23)NC(=O)C(C)NC(=O)C2CSSCC(NC(=O)C(Cc3c[nH]c4ccc(Cl)cc34)NC(=O)C(C(C)C)NC(=O)C(CC(C)C)NC(=O)C(CCC(=O)O)NC(=O)CNC1=O)C(=O)NC(C(C)O)C(=O)N1CCCC1C(=O)N1CC(N)CC1C(=O)NC(CC(=O)O)C(=O)N2 (stereo not drawn) [compound 62]
- pKd (IgG): > 7.00

Compound: CC(C)CC1NC(=O)C(Cc2cnc[nH]2)NC(=O)C(Cc2c[nH]c3ccccc23)NC(=O)C(C)NC(=O)C2CSSCC(NC(=O)C(Cc3c[nH]c4cc(Cl)ccc34)NC(=O)C(C(C)C)NC(=O)C(CC(C)C)NC(=O)C(CCC(=O)O)NC(=O)CNC1=O)C(=O)NC(C(C)O)C(=O)N1CCCC1C(=O)N1CC(N)CC1C(=O)NC(CC(=O)O)C(=O)N2 (stereo not drawn) [compound 61]
- pKd (IgG): > 7.00

Compound: CC(C)CC1NC(=O)C(Cc2cnc[nH]2)NC(=O)C(Cc2c[nH]c3ccccc23)NC(=O)C(C)NC(=O)C2CSSCC(NC(=O)C(Cc3c[nH]c4ccccc34)NC(=O)C(C(C)C)NC(=O)C(CC(C)C)NC(=O)C(CCC(=O)N(C)C)NC(=O)CNC1=O)C(=O)NC(C(C)O)C(=O)N1CCCC1C(=O)N1CC(N)CC1C(=O)NC(CC(N)=O)C(=O)N2 (stereo not drawn) [compound 69] (cyclo(GE(NMe2)LVWCTP[ξPro(4-NH2)]NCAWHL); disulfide 6-11; configuration not given here)
- pKd (IgG): > 7.00

Compound: CC(C)CC1NC(=O)C(Cc2cnc[nH]2)NC(=O)C(Cc2c[nH]c3ccccc23)NC(=O)C(C)NC(=O)C2CSSCC(NC(=O)C(Cc3c[nH]c4ccccc34)NC(=O)C(C(C)C)NC(=O)C(CC(C)C)NC(=O)C(CCC(=O)O)NC(=O)CNC1=O)C(=O)NC(C(C)O)C(=O)N1CCCC1C(=O)N1CC(N)CC1C(=O)NC(CC(=O)O)C(=O)N2 (stereo not drawn) [compound 56]
- pKd (IgG): > 7.00

Compound: CC(C)C[C@@H]1NC(=O)[C@H](Cc2cnc[nH]2)NC(=O)[C@H](Cc2c[nH]c3ccccc23)NC(=O)[C@H](C)NC(=O)[C@@H]2CSSC[C@H](NC(=O)[C@H](Cc3c[nH]c4ccccc34)NC(=O)[C@H](C(C)C)NC(=O)[C@H](CC(C)C)NC(=O)[C@H](CCC(=O)N(C)C)NC(=O)CNC1=O)C(=O)N[C@@H]([C@@H](C)O)C(=O)N1CCC[C@@H]1C(=O)N1C[C@@H](N)C[C@H]1C(=O)N[C@@H](CC(=O)O)C(=O)N2 [compound 65]
- pKd (IgG): > 7.00

Compound: CC(C)CC1NC(=O)C(Cc2cnc[nH]2)NC(=O)C(Cc2c[nH]c3ccccc23)NC(=O)C(C)NC(=O)C2CSSCC(NC(=O)C(Cc3c[nH]c4ccccc34)NC(=O)C(C(C)C)NC(=O)C(CC(C)C)NC(=O)C(CCC(=O)O)NC(=O)CNC1=O)C(=O)NC(C(C)O)C(=O)N1CCCC1C(=O)N1CC(NC(=O)CCCc3cn(CC(=O)NC(COCCC(=O)NCCOCCOCCOCCOCC4OCC(Nc5cncc(C(F)(F)F)n5)C(O)C4O)COCCC(=O)NCCOCCOCCOCCOCC4OCC(Nc5cncc(C(F)(F)F)n5)C(O)C4O)nn3)CC1C(=O)NC(CC(=O)O)C(=O)N2 (stereo not drawn) [compound 77]
- pKd (IgG): > 7.00
- pEC50 ([1]; 100 nM AF488-labeled antibody, 1 hour at 4° C., the 25th table, class symbols, read-out: TCF EC50): > 7.00

Compound: CC(C)CC1NC(=O)C(Cc2cnc[nH]2)NC(=O)C(Cc2c[nH]c3ccccc23)NC(=O)C(C)NC(=O)C2CSSCC(NC(=O)C(Cc3c[nH]c4ccccc34)NC(=O)C(C(C)C)NC(=O)C(CC(C)C)NC(=O)C(CCC(=O)O)NC(=O)CNC1=O)C(=O)NC(C(C)O)C(=O)N1CCCC1C(=O)N1CC(N)CC1C(=O)NC(CC(=O)O)C(=O)N2 (stereo not drawn) [compound 58]
- pKd (IgG): > 7.00

Compound: CC(C)C[C@@H]1NC(=O)[C@H](Cc2cnc[nH]2)NC(=O)[C@H](Cc2c[nH]c3ccccc23)NC(=O)[C@H](C)NC(=O)[C@@H]2CC/C=C/C[C@H](NC(=O)[C@H](Cc3c[nH]c4ccccc34)NC(=O)[C@H](C(C)C)NC(=O)[C@H](CC(C)C)NC(=O)[C@H](CCC(=O)O)NC(=O)CNC1=O)C(=O)N[C@@H]([C@@H](C)O)C(=O)N1CCC[C@@H]1C(=O)N1CCC[C@H]1C(=O)N[C@@H](CC(=O)O)C(=O)N2 [compound 99]
- pKd (IgG): > 7.00

Compound: CC(C)C[C@@H]1NC(=O)[C@H](Cc2cnc[nH]2)NC(=O)[C@H](Cc2c[nH]c3ccccc23)NC(=O)[C@H](C)NC(=O)[C@@H]2CSSC[C@H](NC(=O)[C@H](Cc3c[nH]c4ccccc34)NC(=O)[C@H](C(C)C)NC(=O)[C@H](CC(C)C)NC(=O)[C@H](CCC(=O)O)NC(=O)CNC1=O)C(=O)N[C@@H]([C@@H](C)O)C(=O)N1CCC[C@@H]1C(=O)N1C[C@H](N)C[C@H]1C(=O)N[C@@H](CC(=O)O)C(=O)N2 [compound 95]
- pKd (IgG): > 7.00

Compound: CC(C)CC1NC(=O)C(Cc2cnc[nH]2)NC(=O)C(Cc2c[nH]c3ccccc23)NC(=O)C(C)NC(=O)C2CSSCC(NC(=O)C(Cc3c[nH]c4ccccc34)NC(=O)C(C(C)C)NC(=O)C(CC(C)C)NC(=O)C(CCC(N)=O)NC(=O)CNC1=O)C(=O)NC(C(C)O)C(=O)N1CCCC1C(=O)N1CC(N)CC1C(=O)NC(CC(=O)O)C(=O)N2 (stereo not drawn) [compound 60] (cyclo(GQLVWCTP[ξPro(4-NH2)]DCAWHL); disulfide 6-11; configuration not given here)
- pKd (IgG): > 7.00

Compound: CC(C)CC1NC(=O)C(Cc2cnc[nH]2)NC(=O)C(Cc2c[nH]c3ccccc23)NC(=O)C(C)NC(=O)C2CSSCC(NC(=O)C(Cc3c[nH]c4ccccc34)NC(=O)C(C(C)C)NC(=O)C(CC(C)C)NC(=O)C(CCC(=O)O)NC(=O)CNC1=O)C(=O)NC(C(C)O)C(=O)N1CCCC1C(=O)N1CC(NC(=O)CCCc3cn(CC45COC(O4)C(NC(=O)C(F)(F)F)C(O)C5O)nn3)CC1C(=O)NC(CC(=O)O)C(=O)N2 (stereo not drawn) [compound 104]
- pKd (IgG): > 7.00
- EC50 ([1]; read-out: TCF EC50, 100 nM AF488-labeled antibody, 1 hour at 4° C., the 25th table, numeric bounds, nM from footnote): > 10000 nM

Compound: COC1OC(Cn2cc(CCCC(=O)NC3CC4C(=O)NC(CC(=O)O)C(=O)NC5CSSCC(NC(=O)C(Cc6c[nH]c7ccccc67)NC(=O)C(C(C)C)NC(=O)C(CC(C)C)NC(=O)C(CCC(=O)O)NC(=O)CNC(=O)C(CC(C)C)NC(=O)C(Cc6cnc[nH]6)NC(=O)C(Cc6c[nH]c7ccccc67)NC(=O)C(C)NC5=O)C(=O)NC(C(C)O)C(=O)N5CCCC5C(=O)N4C3)nn2)C(O)C(O)C1NC(C)=O (stereo not drawn) [compound 79]
- pKd (IgG): > 7.00
- pKd (ASGPR): < 6.00
